The values that follow come from patent publication US7303740B2, “Methods for the diagnosis and treatment of breast cancer” (Albert Einstein College of Medicine of Yeshiva University, priority 2000, dated 2007).

Series [1] addresses T1, mgNIS (Homo sapiens, UniProt Q92911).
T1 construct: from tissue; host or cells: person with locally-advanced invasive ductal carcinoma of the breast (whole-body scan)
T1 sequence (Q92911 1-643): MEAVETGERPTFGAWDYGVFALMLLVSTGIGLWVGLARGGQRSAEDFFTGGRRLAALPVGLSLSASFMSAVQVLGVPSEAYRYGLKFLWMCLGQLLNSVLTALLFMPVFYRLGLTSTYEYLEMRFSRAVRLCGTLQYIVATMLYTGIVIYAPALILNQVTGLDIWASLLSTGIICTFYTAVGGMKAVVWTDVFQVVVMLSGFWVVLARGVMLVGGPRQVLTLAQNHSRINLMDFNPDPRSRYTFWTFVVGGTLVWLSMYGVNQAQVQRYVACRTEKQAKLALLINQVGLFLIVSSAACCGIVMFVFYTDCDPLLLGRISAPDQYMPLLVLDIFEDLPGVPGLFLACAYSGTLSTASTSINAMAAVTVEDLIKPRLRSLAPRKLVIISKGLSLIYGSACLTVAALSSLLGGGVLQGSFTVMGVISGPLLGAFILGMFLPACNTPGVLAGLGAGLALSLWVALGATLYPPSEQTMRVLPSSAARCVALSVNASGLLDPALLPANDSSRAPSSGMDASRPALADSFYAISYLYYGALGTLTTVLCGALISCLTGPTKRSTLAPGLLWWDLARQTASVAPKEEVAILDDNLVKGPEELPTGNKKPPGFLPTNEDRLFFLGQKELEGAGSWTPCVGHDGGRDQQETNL
In words: 99mTc-pertechnetate scintigraphy of a person with locally-advanced breast cancer. Type of series: in vivo. The settings on record: whole-body scan, invasive ductal carcinoma. From the text:
FIG. 7. ^99mTc-pertechnetate scintigraphy of a person with a locally-advanced cancer of the right breast and an enlarged thyroid. The patient was scanned after injection of 15 mCi of ^99mTc-labeled pertechnetate (^99mTcO4^−). Tracer accumulates in the thyroid and stomach. Tracer is present in the heart and liver due to vascular pooling. The arrow indicates distinct accumulation in the area of the breast cancer.
The results obtained from the studies on transgenic mice, and the similarity between the human breast cancer immunohistochemical patterns and those observed in thyroid cancer, indicate the likelihood that mgNIS expressed in human breast tumors is active. Clearly, the most direct way to determine the activity of mgNIS in breast cancer is to subject patients to scintigraphic evaluation with ^99mTcO4^−. One patient who was undergoing neoadjuvant hormonal therapy for locally-advanced breast cancer presented initially with an enlarged thyroid. Accordingly, they underwent whole-body ^99mTcO4^− scanning.

Series [2] addresses T2, mgNIS (Mus musculus, UniProt Q99PN0).
T2 sequence (Q99PN0 1-618): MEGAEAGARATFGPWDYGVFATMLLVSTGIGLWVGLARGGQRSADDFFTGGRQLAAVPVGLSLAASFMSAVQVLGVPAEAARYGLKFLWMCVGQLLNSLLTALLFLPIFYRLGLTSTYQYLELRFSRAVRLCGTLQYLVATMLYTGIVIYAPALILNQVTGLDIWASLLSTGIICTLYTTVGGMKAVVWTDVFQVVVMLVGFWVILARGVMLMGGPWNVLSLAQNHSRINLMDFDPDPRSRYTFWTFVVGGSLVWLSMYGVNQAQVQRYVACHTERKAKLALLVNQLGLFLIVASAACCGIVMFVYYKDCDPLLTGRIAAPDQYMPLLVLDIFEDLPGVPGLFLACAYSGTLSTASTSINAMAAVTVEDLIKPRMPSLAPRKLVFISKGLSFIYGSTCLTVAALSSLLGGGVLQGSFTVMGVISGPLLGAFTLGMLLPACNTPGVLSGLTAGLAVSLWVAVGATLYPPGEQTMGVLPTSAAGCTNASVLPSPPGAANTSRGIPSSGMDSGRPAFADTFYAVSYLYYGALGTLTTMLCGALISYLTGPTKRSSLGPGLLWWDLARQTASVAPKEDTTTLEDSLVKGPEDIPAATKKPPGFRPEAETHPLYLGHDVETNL
Type of series: in vivo, mice. Further details: Membrane fractions isolated from MG of nubile female mice; from tissue; host or cells: CD1 (ICR) mice (intact, ovariectomized, gestating) and MMTV-ras / MMTV-neu transgenic mice: mammary gland, mammary adenocarcinoma, stomach.
Description: Analysis of mammary adenocarcinomas in MMTV-ras and MMTV-neu transgenic mice. (A) Photograph of MMTV-ras transgenic mouse with a mammary adenocarcinoma. Transgenic mice were anaesthetized with intramuscular sodium pentobarbital injections. […] (E) Dynamic curves of percent injected dose per pixel were calculated by drawing regions of interest around tumoral tissue and the mediastinum, and dividing the counts per pixel (average counts) within each region of interest by the initial whole-body count value, thereby yielding a percent injected dose per pixel. (F) Immunoblot analysis of membrane fractions isolated from MMTV-ras tumor with anti-NIS Ab. (I) Immunoblot analysis of membrane fractions isolated from MMTV-neu tumors with anti-NIS Ab. In an MMTV-neu mouse with two adjacent mammary glands containing tumors, each tumor is indicated with an arrow and numbered. Lanes “tu1”, “tu2”, and “mg” correspond to proteins extracted from tumor 1, tumor 2, and contralateral normal mammary gland, respectively.
To assess whether specific active I^− uptake (a result of mgNIS expression) occurred in the mammary tumoral cells, transgenic animals were imaged in vivo with either ^131I^− or ^99mTcO4^−. […] Quantification of the accumulation of the various tracers in the tumor, as a function of time, is also shown for the ras mouse.

The target in series [3] is T3, NIS (Rattus norvegicus, UniProt Q63008).
T3 construct: from tissue; host or cells: living female rats (nubile and lactating): thyroid, stomach, lactating mammary gland
T3 sequence (Q63008 1-618): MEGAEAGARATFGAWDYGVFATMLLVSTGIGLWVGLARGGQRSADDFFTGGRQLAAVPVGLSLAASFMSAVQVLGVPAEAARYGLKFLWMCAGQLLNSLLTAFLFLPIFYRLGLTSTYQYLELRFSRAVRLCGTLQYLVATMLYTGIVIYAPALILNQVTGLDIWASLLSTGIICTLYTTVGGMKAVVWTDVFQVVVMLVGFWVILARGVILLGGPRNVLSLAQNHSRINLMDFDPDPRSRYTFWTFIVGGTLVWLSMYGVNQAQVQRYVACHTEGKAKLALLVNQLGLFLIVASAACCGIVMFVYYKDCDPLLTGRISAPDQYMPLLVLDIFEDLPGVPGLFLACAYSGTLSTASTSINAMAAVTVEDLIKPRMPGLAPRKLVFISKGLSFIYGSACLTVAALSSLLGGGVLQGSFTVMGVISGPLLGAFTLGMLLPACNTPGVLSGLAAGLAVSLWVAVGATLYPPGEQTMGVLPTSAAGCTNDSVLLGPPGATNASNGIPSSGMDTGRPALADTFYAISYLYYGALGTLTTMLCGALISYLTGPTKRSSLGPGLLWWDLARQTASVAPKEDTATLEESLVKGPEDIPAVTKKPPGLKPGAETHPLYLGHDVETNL
Type of series: in vivo. The procedure:
FIG. 1. Characterization of I^− accumulation and NIS expression in rat lactating MG and stomach. (A)-(C) In vivo scintigraphic imaging of ^99mTcO4^− injected adult female rats. (A) Radiotracer (1.5 mCi) was injected into the tail vein of nubile animals, and pin-hole images of the body were obtained at 30 min post-injection. (B) Lactating rats were imaged 5 min after ^99mTcO4^− injection. (C) To ascertain inhibition of ^99mTcO4^− uptake, ^99mTcO4^− and 20 mg perchlorate were co-injected into the tail vein, followed by static imaging at 5 min. (D) Immunoblot analysis. Membrane fractions isolated from rat tissues were electrophoresed, electrotransferred onto nitrocellulose, and immunoblotted with affinity-purified anti-NIS antibody (Ab) and horseradish peroxidase (HRP) linked anti-rabbit IgG (Amersham-Pharmacia, Piscataway, N.J.). Approximately 40 μg of membrane fractions were incubated (either with or without N-glycosidase F) overnight at 37° C., followed by SDS polyacrylamide gel electrophoresis and Western blot analysis. Lanes 1 and 2: thyroid; lanes 4 and 5: lactating MG; lanes 7 and 8: stomach; lane 10: non-lactating MG; lane 11: muscle; and lane 12: lung. […]

The target of series [4] is T2, mgNIS. The note with it: mice, 18th day of gestation, subcutaneous injection.
Description: Animals at indicated days of gestation (3rd, 11th, or 18th) received a single dose of 1 μCi ^125I^− by subcutaneous injection in 100 μl of PBS. One hour later, MG were surgically removed, and radioactivity was quantified in a γ-counter (LKB 1282 Compugamma, Md.). Obtained values were standardized according to the weight of MG removed from each mouse, and were expressed as the ratio of radioiodide in MG tissue versus blood.
Series [5] addresses T2, mgNIS. The series is described as follows: Ex vivo scintigraphic imaging of 99mTcO4- accumulation in organs of oxytocin-treated nubile mice. The note with it: 2 mg perchlorate with tracer. Further details: Membrane fractions isolated from MG of nubile female mice; from tissue; host or cells: CD1 (ICR) mice (intact, ovariectomized, gestating) and MMTV-ras / MMTV-neu transgenic mice: mammary gland, mammary adenocarcinoma, stomach. The procedure:
FIG. 3. In vivo effect of oxytocin on functional expression of mgNIS in nubile mice. (A) Radioiodide transport in MG of oxytocin-treated nubile mice. Seven- to eight-week-old female mice were treated subcutaneously with phosphate buffered saline solution (PBS), 10 I.U. of prolactin (PRL), 1 I.U. of oxytocin (OXY), or prolactin and oxytocin (PRL+OXY) for three days. Then, 1 μCi of ^125I^− was injected intraperitoneally. […] (B) Immunoblot analysis of MG from hormonally-treated mice. […] Isolated membrane fractions were electrophoresed, electrotransferred onto nitrocellulose, and analyzed by immunoblots using anti-NIS Ab. […] Perchlorate-inhibited accumulation of ^99mTcO4^− was detected in stomach and MG of OXY-treated animals. (D) Quantification of ^99mTcO4^− accumulation in various organs from OXY- or PBS-treated mice. Tracer accumulation was monitored using image analysis software (ImageQuant, Macintosh). […] Counts were divided by the weight of the organs (cpm/mg tissue), and standardized by dividing them by cpm detected in the blood (cpm/mg blood) of each animal. ^99mTcO4^− accumulation in the organs from: PBS-treated animals (open bars); OXY-treated animals (dotted bars); and OXY-treated animals after ^99mTcO4^−+perchlorate injection (dark bars). […]

Where [6] appears, read: lactating rats, single intraperitoneal injection.

In the case of `[O]=[99Tc](=[O])(=[O])[O-]` [^99mTcO4^−, ^99mTc-pertechnetate], the “tracer distribution in patient with breast tumor” value in series [1] was “concentrated in the area of this patient's breast tumor”. For the same compound, the “tracer accumulation in mammary tumor” value in series [2] (MMTV-ras and MMTV-neu mice, tail vein injection) is “accumulated in the stomach and tumor”. Further, the “time to concentration of 99mTcO4- in all pairs of MGs” value in series [3] (lactating rats, tail vein injection) is no more than 5 min.
Turning to `[125IH]` [^125I^−, radioiodide], the “accumulation of radioiodide in MG compared with blood concentration” value in series [4] was 15 fold. Further, the “125I- concentration in lactating MG” value (lactating rat) is “concentrated in lactating MG”. Also, under setting [6], the “125I- concentration in milk with respect to blood” value was greater than 60 fold and the “time of saturation of 125I- accumulation in milk” value was roughly 2 h. Moreover, the “125I- concentration in skeletal muscle or non-lactating MG” value (rat, in vivo) is “not concentrated”.
Turning to `[O-][Cl+3]([O-])([O-])O` [perchlorate], the “effect on 99mTcO4- accumulation in tumor and stomach” value in series [2] (co-injected with the isotope) is “prevented”. The “effect on 99mTcO4- accumulation in organs” value in series [5] is on record as “inhibited”. Further, the “effect on 99mTcO4- concentration in thyroid, stomach, and lactating MG” value in series [3] (lactating rat, 20 mg perchlorate co-injected, imaging at 5 min) is given as “effectively prevented”.
